# Data from US6352982B1, “4,1-benzoxazepines, their analogues, and their use as somatostatin agonists” (Takeda Chemical Industries, Ltd., priority 1997, dated 2002).
# Counter-ions that a name gives are not always drawn.
# How the values were obtained:
# [1] = test system: primary cell culture of the rat anterior pituitary; test: Inhibition of growth hormone (GH) secretion from primary cell culture; type: cell-based; settings: GHRH-stimulated, 37° C. for 3 hours; for EC50: Rattus norvegicus, GH by RIA, read-out: ED50 values, inhibition of GH secretion
# Experimental: The anterior pituitaries were excised from the decapitated skull of 40 unanesthetized male rats of 8 weeks of age. The anterior pituitaries were placed in a laboratory dish containing the buffer A (consisting of 137 mM of sodium chloride, 5 mM of potassium chloride, 0.7 mM of disodium hydrogen phosphate, 25 mM of 2-[4-(2-hydroxyethyl)-1-piperazinyl]ethane sulfonic acid (HEPES) (pH 7.3), and 50 μg/ml of gentamicin sulfate] and washed once with the buffer A. Each anterior pituitary was cut into 4 pieces by scissors and washed twice again. The pieces of the anterior pituitaries were incubated in 30 ml of Enzyme Solution I [buffer A solution containing 0.4% of collagenase (Boehringer Mannheim), 0.4% of bovine serum albumin, 10 μg/ml of deoxyribonuclease (Sigma) and 0.2% of glucose] at 37° C. under shaking for 1 hour. After dispersion of the pieces of the anterior pituitaries by a Komagome pipette, the solution was centrifuged (480×g, for 6 minutes). The supernatant was discarded. The sediment was suspended in 30 ml of Enzyme Solution II [buffer A solution containing 0.25% of pancreatin (Sigma)] and incubated at 37° C. under shaking for 8 minutes. After adding 2 ml of fetal calf serum, the cell suspension was centrifuged (480×g, for 6 minutes) again and the supernatant was discarded. The sediment was suspended in 10 ml of Medium I [Dulbecco modified Eagle's Medium (DMEM) containing 10% of fetal calf serum, 20 mM of HEPES (pH 7.3), 50 U/ml of penicillin G and 50 μg/ml of streptomycin] and filtered through nylon mesh. The cells thus obtained were washed twice with 10 ml of Medium I. The number of the cells was counted, and the cells were suspended in Medium I in the cell density of 1.5×10^5 cells/ml. The aliquots of 1 ml each of the cell suspension were placed in the wells of 24-well plate and incubated at 37° C. for 3 days in the carbon dioxide incubator under 5% carbon dioxide-95% air environment. The cells were washed twice with 1 ml of Medium II (Medium I containing 0.2% bovine serum albumin instead of 10% fetal calf serum) and then incubated in 1 ml of Medium II for 1 hour. The supernatant was discarded. To each well of the 24-well plate 0.8 ml each of Medium II was added, and 0.1 ml of Medium II containing somatostatin-14 (SS-14) or the compound of Example 5 or the compound of Example 102 in the concentration of 10 times the final concentration and 0.1 ml of 10 nM growth hormone releasing hormone (GHRH) were added thereto. After incubation at 37° C. for 3 hours, 0.6 ml of the supernatant of the each well was collected to obtain a supernatant solution by the centrifugation on 1,000×g for 8 minutes. GH concentrations in the supernatant were determined by radioimmunoassay (RIA) kit of Amersham.
# Sprague-Dawley (SD) rats = test: Inhibition of GH secretion using Sprague-Dawley rats; type: in vivo, rat; settings: male SD rats, 3 mg/kg intraperitoneally
# Experimental: Male rats of SD strain were divided into the compound treatment group (n=5) and the control group (n=4). The rats in the compound treatment group were administered intraperitoneally with 0.5% methylcellulose saline solution containing the compound of Example 5 in the concentration of 3 mg/kg/5 ml, and the animals of the control group were administered intraperitoneally with 5 ml/kg of 0.5% methylcellulose saline solution. Four hours after administration, the rats were decapitated without anesthesia and whole blood was collected. The aliquots of 1 ml each of the plasma were obtained from the blood by centrifugation at 2,500 rpm at 4° C. for 30 minutes and stored at −20° C. Plasma GH concentrations were determined by RIA using the rat GH [ I] assay system (Amersham).
# [2] = target: T1, human somatostatin receptor SSTR1 (Homo sapiens, UniProt P30872); test: Binding inhibition of 125I-somatostatin, CHO cell membrane fraction; settings: 125I-somatostatin binding, 25° C. for 60 minutes, read-out: Activities for human somatostatin receptor (IC50 value) SSTR1
# T1 construct: expressed in transfected cells; host or cells: CHO (dhfr-) cells, strain SSTR1-8-3
# Experimental: A human somatostatin receptor expression CHO cell strain, SSTR1-8-3, SSTR2-HS5-9, SSTR3-15-19, SSTR4-1-2 or SSTR5-32-4 (10^9), was suspended in a phosphate buffered saline containing 5mM of EDTA (PBS-EDTA). The suspension was centrifuged. To the cell pellet was added 10 ml of a homogenation buffer solution for cells (10 mM NaHCO3, 5 mM EDTA, pH=7.5). The mixture was homogenized by a Politron homogenizer and centrifuged at 400×g for 15 minutes. The supernatant obtained was farther centrifuged at 100,000×g for an hour to obtain a precipitate of the membrane fraction. The precipitate was suspended in 2 ml of a buffer solution for assay ([…], 0.1% of BSA (bovine serum albumin) and […], 1 μ/ml of pepstatin, 20 μg/ml of leupeptin, 10 μg/ml of phosphoramide, pH=7.5). The suspension was centrifuged at […] for an hour. The membrane fraction recovered as precipitate was suspended again in 20 ml of buffer solution for assay. The suspension was placed in tubes and stored at −80° C. The suspension was thawed when used, and used at every use.
# The membrane fraction prepared in Example 1 was diluted with a buffer solution for assay to adjust the concentration to 3 μg/ml. The diluate was placed in tubes each in quantity of 173 μl. To this were simultaneously added 2 μl of a solution of a compound in DMSO and 25μl of a 200pM radioisotope-labeled somatostatin (^125I-somatostatin: Amersham) solution. For measurement of the maximum binding, a reaction mixture added with 2 μl of DMSO and 25μl of a 200pM ^125I-somatostatin solution was prepared. For measurement of non-specific binding, a reaction mixture added with 2 μl of a 100 μM somatostatin solution diluted in DMSO and 25 μl of a 200pM ^125I-somatostatin solution was prepared at the same time. The mixtures were allowed to react at 25° C. for 60 minutes. Then, the reaction mixture was filtered by aspiration using a GF/B glass fiber filter paper (Whatman) treated with polyethylenimine. After filtration, the radioactivity of 125I-somatostatin remaining on the filter paper was measured by a γ-counter.
# The binding rate (%) of each compound was calculated by the formula: […]
# (where PBM: Percent maximum Binding, B: radioactivity when a compound was added, Bo: maximum binding radioactivity, NSB: non-specific binding radioactivity). The binding rates were calculated by changing the concentrations of the compound to obtain the 50% inhibiting concentration of the compound (IC50 value) by the Hil l plots.
# The activities (IC50 value, μM) of the compounds for each human somatostatin receptor obtained by the above method are shown in the following Table 5.
# T1 sequence (P30872 whole entry): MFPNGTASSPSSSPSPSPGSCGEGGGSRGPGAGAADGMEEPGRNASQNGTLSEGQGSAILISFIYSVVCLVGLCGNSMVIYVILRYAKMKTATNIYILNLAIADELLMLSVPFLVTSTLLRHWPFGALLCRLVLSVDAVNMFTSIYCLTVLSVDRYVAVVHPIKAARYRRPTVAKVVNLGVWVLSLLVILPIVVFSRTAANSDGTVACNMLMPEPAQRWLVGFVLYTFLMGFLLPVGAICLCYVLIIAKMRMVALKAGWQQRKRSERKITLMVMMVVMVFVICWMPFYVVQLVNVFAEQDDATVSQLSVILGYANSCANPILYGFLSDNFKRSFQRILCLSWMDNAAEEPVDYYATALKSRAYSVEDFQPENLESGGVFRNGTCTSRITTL
IC50 [2],SMILES,GH secretion from the primary cell culture of rat anterior pituitary [1],EC50 [1],"Plasma GH concentrations mean ± SD (Sprague-Dawley (SD) rats; four hours after administration, n = 5)",Plasma GH concentration versus control (Sprague-Dawley (SD) rats; p<0.05)
,"NCc1cccc(C2OC(CC(=O)NCc3ccccc3F)C(=O)N(Cc3ccc(-c4ccccc4)cc3)c3ccc(Cl)cc32)c1 (stereo not drawn) [Example 5, 3,5-Trans-N-(2-fluorobenzyl)-5-(3-aminomethylphenyl)-1-(4-biphenylmethyl)-7-chloro-2-oxo-1,2,3,5-tetrahydro-4,1-benzoxazepine-3-acetamide•monohydrochloride]",inhibited dose-dependently,8 nM,11.2 ± 6.5 ng/mL,declined significantly
> 1000 nM,"NCc1cccc(C2OC(CC(=O)NCc3ccccc3F)C(=O)N(Cc3ccc(O)cc3)c3ccc(Cl)cc32)c1 (stereo not drawn) [Example 102, 3,5-Trans-N-(2-fluorobenzyl)-5-(3-aminomethylphenyl)-7-chloro-1-(4-hydroxybenzyl)-2-oxo-1,2,3,5-tetrahydro-4,1-benzoxazepine-3-acetamide•monohydrochloride]",inhibited dose-dependently,10 nM,,
